Where two headings read alike, the source gives them in different places. Blank lines part the entries; values can stand above or below the compound they belong to.
Columns and labels:
Primary human T-cells = assay: Primary Human T-Cell Proliferation Assay Stimulated with IL-2 (CellTiter-Glo); assay type: cell-based; details: read-out: IC50, Example 42
How it was run: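 Peripheral blood T-cells pre-activated with anti-CD3/anti-CD28 and IL-2 were washed free of IL-2, then cultured with compound plus IL-2 for 72 hours at 37° C, duplicate wells. Viability read as ATP by CellTiter-Glo luminescence; IC50 reported.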

[1] = system: IL-4 stimulated expression of CD23 in human Ramos B cells (JAK-1 and JAK-3); assay: Assay for Ramos B-Cell Line Stimulated with IL-4 (CD23 upregulation, FACS); assay type: cell-based; details: read-out: IC50, Example 41
How it was run: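 Human Ramos B cells in RPMI with 5% serum were pre-incubated with compound or DMSO for 1 h at 37 °C, then stimulated with IL-4 at a final 50 units/mL for 20-24 h. CD23 upregulation was measured by anti-CD23-PE staining and flow cytometry, and IC50 values were calculated.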

[2] = primary human T-cell proliferation stimulated with IL-2
[3] = Ramos B-cell line stimulated with IL-4, CD23 expression by FACS
[4] = Homo sapiens, T-cell, primary human T-cells stimulated with IL-2, proliferation
[5] = Homo sapiens, Ramos, Ramos B cells stimulated with IL-4, CD23 expression by FACS
[6] = Homo sapiens, T-cell, primary human T-cell proliferation stimulated with IL-2
[7] = Homo sapiens, Ramos, Ramos B-cell line stimulated with IL-4, CD23 expression by FACS
[8] = primary human T-cells stimulated with IL-2, proliferation
[9] = Ramos B cells stimulated with IL-4, CD23 expression by FACS

Compound: NS(=O)(=O)c1cccc(Nc2ncc(F)c(Nc3ccc(-c4ccccn4)c(OCF)c3)n2)c1 [Compound I-169, N2-(3-Aminosulfonylphenyl)-5-fluoro-N4-[4-(2-pyridinyl)-3-fluoromethyleneoxyphenyl]-2,4-pyrimidinediamine]
IC50 (Primary human T-cells; [2]): 137 nM
IC50 [1, 3]: 54.6 nM

Compound: C#CCNS(=O)(=O)c1ccc(Nc2nc(Nc3cccc(S(N)(=O)=O)c3)ncc2F)cc1 [VI-75, N2-(3-Aminosulfonylphenyl)-5-fluoro-N4-[4-(prop-2-ynylaminosulfonyl)phenyl]-2,4-pyrimidinediamine]
IC50 (Primary human T-cells; [4]): 929 nM
IC50 [1, 5]: 904 nM

Compound: N#CCC(=O)Nc1ccc(Nc2nc(Nc3cccc(S(N)(=O)=O)c3)ncc2F)cc1Cl [Compound I-82, N2-(3-Aminosulfonylphenyl)-N4-[3-chloro-4-(N-cyanoacetyl)aminophneyl]-5-fluoro-2,4-pyrimidinediamine]
IC50 (Primary human T-cells; [2]): 1380 nM
IC50 [1, 3]: 244 nM

Compound: Cc1ccc(Nc2ncc(F)c(Nc3ccc(OCC(=O)N(C)C)c(Cl)c3)n2)cc1S(N)(=O)=O [Compound I-133, N2-(3-Aminosulfonyl-4-methylphenyl)-N4-(3-chloro-4-dimethylaminocarbonylmethoxyphenyl)-5-fluoro-2,4-pyrimidinediamine]
IC50 (Primary human T-cells; [6]): 1350 nM
IC50 [1, 7]: 237 nM

Compound: Cc1ccc(Nc2ncc(F)c(Nc3ccc(CCCO)cc3)n2)cc1S(N)(=O)=O [VI-87, N2-(3-Aminosulfonyl-4-methylphenyl)-5-fluoro-N4-[4-(3-hydroxypropyl)phenyl]-2,4-pyrimidinediamine]
IC50 (Primary human T-cells; [4]): 1240 nM
IC50 [1, 5]: 541 nM

Compound: Cc1ccc(Nc2ncc(F)c(Nc3ccc(OC(F)(F)F)cc3)n2)cc1S(N)(=O)=O [VI-32, N2-(3-aminosulfonyl-4-methylphenyl)-5-fluoro-N4-(4-trofluoromethoxyphenyl)-2,4-pyrimidinediamine]
IC50 (Primary human T-cells; [8]): 1660 nM
IC50 [1, 9]: 333 nM

Compound: Cc1ccc(Nc2ncc(F)c(Nc3ccc(CCCCF)cc3)n2)cc1S(N)(=O)=O [VI-93, N2-(3-Aminosulfonyl-4-methylphenyl)-5-fluoro-N4-[4-(4-fluorobutyl)phenyl]-2,4-pyrimidinediamine]
IC50 (Primary human T-cells; [4]): 560 nM
IC50 [1, 5]: 110 nM

Compound: Cc1ccc(Nc2ncc(F)c(Nc3ccc(C(C)(C)C)cc3)n2)cc1S(N)(=O)=O [VI-36, N2-(3-Aminosulfonyl-4-methylphenyl)-N4-(4-tert-butylphenyl)-5-fluoro-2,4-pyrimidinediamine]
IC50 (Primary human T-cells; [4]): 4500 nM
IC50 [1, 5]: 374 nM

Compound: NS(=O)(=O)c1cc(Nc2ncc(F)c(Nc3ccc(Oc4cccnc4)cc3)n2)cc(S(N)(=O)=O)c1 [II-15, N2-[3,5-bis(Aminosulfonyl)phenyl)-5-fluoro-N4-[4-(3-pyridyloxy)phenyl]-2,4-pyrimidinediamine]
IC50 (Primary human T-cells; [6]): 1100 nM
IC50 [1, 7]: 982 nM

Compound: C=CCNC(=O)COc1ccc(Nc2nc(Nc3ccc(S(N)(=O)=O)cc3)ncc2F)cc1 [Compound I-157, N4-(4-Allylaminocarbonylmethoxyphenyl)-N2-(4-aminosulfonylphenyl)-5-fluoro-2,4-pyrimidinediamine]
IC50 (Primary human T-cells; [6]): 1890 nM
IC50 [1, 7]: 246 nM

Compound: NS(=O)(=O)c1cc(Nc2ncc(F)c(Nc3ccc(C(F)(F)F)c(Cl)c3)n2)ccc1Cl [VI-44, N2-(3-Aminosulfonyl-4-chlorophenyl)-N4-(3-chloro-4-trifluoromethyl-phenyl)-5-fluoro-2,4-pyrimidinediamine]
IC50 (Primary human T-cells; [4]): 7310 nM
IC50 [1, 5]: 429 nM

Compound: C#CCOC(=O)NCc1ccc(Nc2nc(Nc3ccc(C)c(S(N)(=O)=O)c3)ncc2F)cc1 [VI-73, N2-(3-Aminosulfonyl-4-methylphenyl)-5-fluoro-N4-{4-[(prop-2-ynyloxy)carbonylaminomethyl]phenyl}-2,4-pyrimidinediamine]
IC50 (Primary human T-cells; [4]): 2010 nM
IC50 [1, 5]: 251 nM

Compound: CNC(=O)COc1ccc(Nc2nc(Nc3ccc(C)c(S(N)(=O)=O)c3)ncc2C)cc1Cl [Compound I-151, N2-(3-Aminosulfonyl-4-methylphenyl)-N4-(3-chloro-4-methylaminocarbonylmethoxyphenyl)-5-methyl-2,4-pyrimidinediamine]
IC50 (Primary human T-cells; [6]): 78.3 nM
IC50 [1, 7]: 61.9 nM

Compound: N2-(3-Aminosulfonylphenyl)-N4-(4-chloro-3-trifluoromethylphenyl)-5-fluoro-2,4-pyrimidinediamine [VI-38]
IC50 (Primary human T-cells; [8]): 2070 nM
IC50 [1, 9]: 414 nM

Compound: Cc1nccn1Cc1ccc(Nc2nc(Nc3cccc(S(N)(=O)=O)c3)ncc2F)cc1 [III-94, N2-(3-Aminosulfonylphenyl)-5-fluoro-N4-[4-(2-methyl-1-imidazolylmethyl)phenyl]-2,4-pyrimidinediamine]
IC50 (Primary human T-cells; [8]): 716 nM
IC50 [1, 9]: 162 nM

Second part, led by results:

IC50 [1, 3]: 394 nM
Compound: CCC(=O)NCc1ccc(Nc2nc(Nc3cccc(S(N)(=O)=O)c3)ncc2F)cc1 [III-36, N2-(3-aminosulfonyl)phenyl-N4-(4-ethylcarbonylaminomethyl)phenyl-5-fluoro-2,4-pyrimidinediamine]
IC50 (Primary human T-cells; [2]): 382 nM

IC50 [1, 5]: 62.3 nM
Compound: COc1c(C)cc(Nc2ncc(F)c(Nc3ccc4c(c3)NC(=O)C(F)(F)O4)n2)cc1S(N)(=O)=O [VII-38, N2-(3-Aminosulfonyl-4-methoxy-5-methylphenyl)-N4-(2,2-difluoro-4H-benz[1,4]oxazin-3-on-6-yl)-5-fluoro-2,4-pyrimidinediamine]
IC50 (Primary human T-cells; [4]): 417 nM

IC50 [1, 7]: 196 nM
Compound: Cc1ccc(Nc2ncc(F)c(Nc3ccc(CCOC(=O)N(C)C)cc3)n2)cc1S(N)(=O)=O [III-56, N2-(3-Aminosulfonyl-4-methylphenyl)-N4-{4-[2-(dimethylaminocarbonyloxy)ethyl]phenyl}-5-fluoro-2,4-pyrimidinediamine]
IC50 (Primary human T-cells; [6]): 499 nM

IC50 [1, 5]: 369 nM
Compound: NS(=O)(=O)c1cccc(Nc2ncc(F)c(Nc3cnc4ccccc4c3)n2)c1 [VII-66, N2-(3-Aminosulfonylphenyl)-5-fluoro-N4-(quinolin-3-yl)-2,4-pyrimidinediamine]
IC50 (Primary human T-cells; [4]): 2870 nM

IC50 [1, 5]: 206 nM
Compound: NS(=O)(=O)c1cc(Nc2ncc(F)c(Nc3cccc4cccnc34)n2)ccc1F [VII-79, N2-(3-Aminosulfonyl-4-fluorophenyl)-5-fluoro-N4-(quinolin-8-yl)-2,4-pyrimidinediamine]
IC50 (Primary human T-cells; [4]): 3200 nM

IC50 [1, 7]: 1680 nM
Compound: NC(=O)NCc1ccc(Nc2nc(Nc3cccc(S(N)(=O)=O)c3)ncc2F)cc1 [III-33, N4-(4-Aminocarbonylaminomethylphenyl)-N2-(3-aminosulfonylphenyl)-5-fluoro-2,4-pyrimidinediamine]
IC50 (Primary human T-cells; [6]): 852 nM

IC50 [1, 9]: 575 nM
Compound: N2-(3-Aminosulfonyl-4-methylphenyl)-N4-(4-ethylaminocarbonylaminomethylphenyl)-5-fluoro-2,4-pyrimidinedia [III-121]
IC50 (Primary human T-cells; [8]): 1020 nM

IC50 [1, 7]: 172 nM
Compound: NS(=O)(=O)c1cccc(Nc2ncc(F)c(Nc3ccc(Cc4ccccc4)cc3)n2)c1 [III-62, N2-(3-Aminosulfonylphenyl)-N4-(4-benzylphenyl)-5-fluoro-2,4-pyrimidinediamine]
IC50 (Primary human T-cells; [6]): 699 nM

IC50 [1, 9]: 173 nM
Compound: CNS(=O)(=O)c1cc(Nc2ncc(F)c(Nc3ccc(Cn4ccnc4C)cc3)n2)ccc1C [III-93, 5-Fluoro-N2-[3-(N-methylaminosulfony)-4-methylphenyl]-N4-[4-(2-methyl-1-imidazolylmethyl)phenyl]-2,4-pyrimidinediamine]
IC50 (Primary human T-cells; [8]): 819 nM

IC50 [1, 3]: 294 nM
Compound: NS(=O)(=O)c1cccc(Nc2ncc(F)c(Nc3ccc(CNC(=O)C4CC4)cc3)n2)c1 [III-42, N2-(3-aminosulfonyl)phenyl-N4-(4-cyclopropylcarbonylaminomethyl)phenyl-5-fluoro-2,4-pyrimidinediamine]
IC50 (Primary human T-cells; [2]): 641 nM
